We go through 21 compounds from patent US10696707B2, “Polyene macrolide derivative” (Shionogi & Co., Ltd., priority 2014, dated 2020).

For orientation: IC50 means the concentration needed to halve the response being measured.

Where two headings read alike, the source gives them in different places. Some results are limits rather than exact numbers.

The subject of the assay is red blood cells (5% RBC suspension). The experiment in a line: Test Example 2-1: in vitro hemolytic activity test (upper limit 50, 80, 100 or 200 μmol/L). Type of assay: cell-based. To be noted: 5% RBC suspension, 37° C., one hour, read-out: hemolysis IC50. How it is done: Nephrotoxic potentials of the compounds of the present invention except the compounds whose X is —N(R^F)—CO—X^1 and X^1 is the group represented by formula (III) and T is —N(R^a5)— were investigated by in vitro hemolytic activity test under the condition, in that, the upper limit was 50 μmol/L, 80 μmol/L, 100 μmol/L, or 200 μmol/L as the required concentration to 50% of hemolysis (IC50).
Defibrinated sterile blood was centrifuged at 700×g for 3 minutes and, and the supernatant was removed for 100% of red blood cells. After the cleaning with physiological saline, the washed blood cells was suspended in the medium (Earle's balanced salt sodium, bicarbonate, 0.1 g/L L-glutamine without phenol red), and was diluted by 5% (5% RBC suspension).
The washed blood was diluted by 5% in water for injection (solution of complete hemolysis), and was used as the indication of optical density for complete hemolysis.
The compounds of the present invention solution in DMSO (several and doubling dilutions starting from 2.5 mmol/L, 4 mmol/L, 5 mmol/L, or 10 mmol/L), DMSO as the negative control, and Amphotericin B as the positive control were used, and each 5 μL of these was added in to a well of V-form 96 well type microplate.
Finally, the maximum concentration of the compounds of the present invention solution in DMSO was 50 μmol/L, 80 μmol/L, 100 μmol/L, or 200 μmol/L by adding 245 μL of the medium or 5% RBC suspension into the well.
Two hundred fifty μL of the solution of complete hemolysis was added into another well and the microplate was incubated at 37° C. in 5% of CO2 concentration for an hour.
After the incubation, each 100 μL of supernatants in wells was collected by centrifugation of the microplate at 300×g for 5 minutes and was located on a well of flat-form 96 well type microplate. An absorbance of each supernatant was measured at wavelength of 540 nm.
Percent hemolysis was calculated by using the followed equation. The required concentration to 50% of hemolysis (IC50) was calculated based on the percent hemolysis. […] Hemolysis (%)=(CR−VM)×100÷(VL−VR) Where:
CR: Absorbance of 5% RBC suspension incubated with the compounds of the present invention solution in DMSO
VM: Absorbance of medium incubated with the compounds of the present invention solution in DMSO
VL: Absorbance of solution of complete hemolysis
VR: Absorbance of 5% RBC suspension incubated with DMSO
The “hemolysis method” in the table means any tests the upper concentration of above IC50 are 50 μmol/L, 80 μmol/L, 100 μmol/L or 200 μmol/L. The “>50”, “>80”, “>100” or “>200” in the table means above IC50 value exceeded the each upper concentration.

The mark [1] stands for this setting: hemolysis method 80 (upper concentration 80 μmol/L).
[2] abbreviates: hemolysis method 100 (upper concentration 100 μmol/L).
Where [3] appears, read: hemolysis method 50 (upper concentration 50 μmol/L).

On to `C[C@@H]1[C@H](O)[C@@H](C)/C=C/C=C/C=C/C=C/C=C/C=C/C=C/[C@H](O[C@@H]2O[C@H](C)[C@@H](O)[C@H](N)[C@@H]2O)C[C@@H]2O[C@](O)(C[C@@H](O)C[C@@H](O)[C@H](O)CC[C@@H](O)C[C@@H](O)CC(=O)O[C@H]1C)C[C@H](O)[C@H]2NC(=O)N1CCC(N(C)C)C1` (single isomer, unassigned) [I-49], for which, under setting [1], the IC50 is more than 80 µM.

As for `C[C@@H]1[C@H](O)[C@@H](C)/C=C/C=C/C=C/C=C/C=C/C=C/C=C/[C@H](O[C@@H]2O[C@H](C)[C@@H](O)[C@H](N)[C@@H]2O)C[C@@H]2O[C@](O)(C[C@@H](O)C[C@@H](O)[C@H](O)CC[C@@H](O)C[C@@H](O)CC(=O)O[C@H]1C)C[C@H](O)[C@H]2NC(=O)N1CCC(N(C)C)C1` (single isomer, unassigned) [I-50], the IC50 under setting [1] is more than 80 µM.

On to `C[C@@H]1[C@H](O)[C@@H](C)/C=C/C=C/C=C/C=C/C=C/C=C/C=C/[C@H](O[C@@H]2O[C@H](C)[C@@H](O)[C@H](N)[C@@H]2O)C[C@@H]2O[C@](O)(C[C@@H](O)C[C@@H](O)[C@H](O)CC[C@@H](O)C[C@@H](O)CC(=O)O[C@H]1C)C[C@H](O)[C@H]2NC(=O)NCCc1c[nH]cn1` [I-5], for which the IC50 (Erythrocyte, 1 h, hemolysis method 100 (upper concentration 100 μmol/L)) is 94 µM.

On to `C[C@@H]1[C@H](O)[C@@H](C)/C=C/C=C/C=C/C=C/C=C/C=C/C=C/[C@H](O[C@@H]2O[C@H](C)[C@@H](O)[C@H](N)[C@@H]2O)C[C@@H]2O[C@](O)(C[C@@H](O)C[C@@H](O)[C@H](O)CC[C@@H](O)C[C@@H](O)CC(=O)O[C@H]1C)C[C@H](O)[C@H]2NC(=O)NC(CO)Cc1c[nH]cn1` (stereo partly drawn) [I-6], for which the IC50 under setting [2] is 75 µM.

For `C[C@@H]1[C@H](O)[C@@H](C)/C=C/C=C/C=C/C=C/C=C/C=C/C=C/[C@H](O[C@@H]2O[C@H](C)[C@@H](O)[C@H](N)[C@@H]2O)C[C@@H]2O[C@](O)(C[C@@H](O)C[C@@H](O)[C@H](O)CC[C@@H](O)C[C@@H](O)CC(=O)O[C@H]1C)C[C@H](O)[C@H]2NC(=O)NCCCN(C)C` [I-7], the IC50 under setting [2] came out at 81 µM.

`C[C@@H]1[C@H](O)[C@@H](C)/C=C/C=C/C=C/C=C/C=C/C=C/C=C/[C@H](O[C@@H]2O[C@H](C)[C@@H](O)[C@H](N)[C@@H]2O)C[C@@H]2O[C@](O)(C[C@@H](O)C[C@@H](O)[C@H](O)CC[C@@H](O)C[C@@H](O)CC(=O)O[C@H]1C)C[C@H](O)[C@H]2NC(=O)NCCCN1CCOCC1` [I-8]: the IC50 under setting [2] was determined as 96 µM.

Take `C[C@@H]1[C@H](O)[C@@H](C)/C=C/C=C/C=C/C=C/C=C/C=C/C=C/[C@H](O[C@@H]2O[C@H](C)[C@@H](O)[C@H](N)[C@@H]2O)C[C@@H]2O[C@](O)(C[C@@H](O)C[C@@H](O)[C@H](O)CC[C@@H](O)C[C@@H](O)CC(=O)O[C@H]1C)C[C@H](O)[C@H]2NC(=O)NCCn1cncn1` [I-9]: the IC50 under setting [2] was more than 100 µM.

In the case of `C[C@@H]1[C@H](O)[C@@H](C)/C=C/C=C/C=C/C=C/C=C/C=C/C=C/[C@H](O[C@@H]2O[C@H](C)[C@@H](O)[C@H](N)[C@@H]2O)C[C@@H]2O[C@](O)(C[C@@H](O)C[C@@H](O)[C@H](O)CC[C@@H](O)C[C@@H](O)CC(=O)O[C@H]1C)C[C@H](O)[C@H]2NC(=O)N(C)C` [I-10], the IC50 under setting [2] was more than 100 µM.

Regarding `C[C@@H]1[C@H](O)[C@@H](C)/C=C/C=C/C=C/C=C/C=C/C=C/C=C/[C@H](O[C@@H]2O[C@H](C)[C@@H](O)[C@H](N)[C@@H]2O)C[C@@H]2O[C@](O)(C[C@@H](O)C[C@@H](O)[C@H](O)CC[C@@H](O)C[C@@H](O)CC(=O)O[C@H]1C)C[C@H](O)[C@H]2NC(=O)NCCOCCOCCO` [I-11], under setting [3], the IC50 is more than 50 µM.

For the compound `C[C@@H]1[C@H](O)[C@@H](C)/C=C/C=C/C=C/C=C/C=C/C=C/C=C/[C@H](O[C@@H]2O[C@H](C)[C@@H](O)[C@H](N)[C@@H]2O)C[C@@H]2O[C@](O)(C[C@@H](O)C[C@@H](O)[C@H](O)CC[C@@H](O)C[C@@H](O)CC(=O)O[C@H]1C)C[C@H](O)[C@H]2NC(=O)NCCc1ccccn1` [I-15], the IC50 under setting [1] was more than 80 µM.

On to `C[C@@H]1[C@H](O)[C@@H](C)/C=C/C=C/C=C/C=C/C=C/C=C/C=C/[C@H](O[C@@H]2O[C@H](C)[C@@H](O)[C@H](N)[C@@H]2O)C[C@@H]2O[C@](O)(C[C@@H](O)C[C@@H](O)[C@H](O)CC[C@@H](O)C[C@@H](O)CC(=O)O[C@H]1C)C[C@H](O)[C@H]2NC(=O)N1CCN(c2ccccc2)CC1` [I-17], for which the half-maximal inhibitory concentration (IC50) under setting [1] was more than 80 µM.

On to `C[C@@H]1[C@H](O)[C@@H](C)/C=C/C=C/C=C/C=C/C=C/C=C/C=C/[C@H](O[C@@H]2O[C@H](C)[C@@H](O)[C@H](N)[C@@H]2O)C[C@@H]2O[C@](O)(C[C@@H](O)C[C@@H](O)[C@H](O)CC[C@@H](O)C[C@@H](O)CC(=O)O[C@H]1C)C[C@H](O)[C@H]2NC(=O)N1CCOCCOCCOCCOCCOCC1` [I-18], for which, under setting [1], the IC50 is more than 80 µM.

Regarding `C[C@@H]1[C@H](O)[C@@H](C)/C=C/C=C/C=C/C=C/C=C/C=C/C=C/[C@H](O[C@@H]2O[C@H](C)[C@@H](O)[C@H](N)[C@@H]2O)C[C@@H]2O[C@](O)(C[C@@H](O)C[C@@H](O)[C@H](O)CC[C@@H](O)C[C@@H](O)CC(=O)O[C@H]1C)C[C@H](O)[C@H]2NC(=O)NCC(F)(F)F` [I-21], under setting [1], the IC50 is more than 80 µM.

Take `C[C@@H]1[C@H](O)[C@@H](C)/C=C/C=C/C=C/C=C/C=C/C=C/C=C/[C@H](O[C@@H]2O[C@H](C)[C@@H](O)[C@H](N)[C@@H]2O)C[C@@H]2O[C@](O)(C[C@@H](O)C[C@@H](O)[C@H](O)CC[C@@H](O)C[C@@H](O)CC(=O)O[C@H]1C)C[C@H](O)[C@H]2NC(=O)N1CCCCC1c1ccccc1` (stereo partly drawn) [I-22]: under setting [1], the IC50 is more than 80 µM.

With `C[C@@H]1[C@H](O)[C@@H](C)/C=C/C=C/C=C/C=C/C=C/C=C/C=C/[C@H](O[C@@H]2O[C@H](C)[C@@H](O)[C@H](N)[C@@H]2O)C[C@@H]2O[C@](O)(C[C@@H](O)C[C@@H](O)[C@H](O)CC[C@@H](O)C[C@@H](O)CC(=O)O[C@H]1C)C[C@H](O)[C@H]2NC(=O)N1CCCN(CCCN2CCOCC2)CC1` [I-23], the IC50 under setting [1] is 79 µM.

For `C[C@@H]1[C@H](O)[C@@H](C)/C=C/C=C/C=C/C=C/C=C/C=C/C=C/[C@H](O[C@@H]2O[C@H](C)[C@@H](O)[C@H](N)[C@@H]2O)C[C@@H]2O[C@](O)(C[C@@H](O)C[C@@H](O)[C@H](O)CC[C@@H](O)C[C@@H](O)CC(=O)O[C@H]1C)C[C@H](O)[C@H]2NC(=O)N1CCN(CCCOc2ccccc2)CC1` [I-24], under setting [1], the half-maximal inhibitory concentration (IC50) is more than 80 µM.

In the case of `C[C@@H]1[C@H](O)[C@@H](C)/C=C/C=C/C=C/C=C/C=C/C=C/C=C/[C@H](O[C@@H]2O[C@H](C)[C@@H](O)[C@H](N)[C@@H]2O)C[C@@H]2O[C@](O)(C[C@@H](O)C[C@@H](O)[C@H](O)CC[C@@H](O)C[C@@H](O)CC(=O)O[C@H]1C)C[C@H](O)[C@H]2NC(=O)NCCCC(=O)O` [I-38], the half-maximal inhibitory concentration (IC50) under setting [3] was more than 50 µM.

As to `C[C@@H]1[C@H](O)[C@@H](C)/C=C/C=C/C=C/C=C/C=C/C=C/C=C/[C@H](O[C@@H]2O[C@H](C)[C@@H](O)[C@H](N)[C@@H]2O)C[C@@H]2O[C@](O)(C[C@@H](O)C[C@@H](O)[C@H](O)CC[C@@H](O)C[C@@H](O)CC(=O)O[C@H]1C)C[C@H](O)[C@H]2NC(=O)N(CCO)CCO` [I-39], under setting [1], the IC50 was more than 80 µM.

In the case of `C[C@@H]1[C@H](O)[C@@H](C)/C=C/C=C/C=C/C=C/C=C/C=C/C=C/[C@H](O[C@@H]2O[C@H](C)[C@@H](O)[C@H](N)[C@@H]2O)C[C@@H]2O[C@](O)(C[C@@H](O)C[C@@H](O)[C@H](O)CC[C@@H](O)C[C@@H](O)CC(=O)O[C@H]1C)C[C@H](O)[C@H]2NC(=O)NC1CC1` [I-41], for the setting “Erythrocyte, 1 h, hemolysis method 50 (upper concentration 50 μmol/L)”, the IC50 is more than 50 µM.

Consider `C[C@@H]1[C@H](O)[C@@H](C)/C=C/C=C/C=C/C=C/C=C/C=C/C=C/[C@H](O[C@@H]2O[C@H](C)[C@@H](O)[C@H](N)[C@@H]2O)C[C@@H]2O[C@](O)(C[C@@H](O)C[C@@H](O)[C@H](O)CC[C@@H](O)C[C@@H](O)CC(=O)O[C@H]1C)C[C@H](O)[C@H]2NC(=O)NC1CCN(C)CC1` [I-48], for which the IC50 under setting [1] is more than 80 µM.

`C[C@@H]1[C@H](O)[C@@H](C)/C=C/C=C/C=C/C=C/C=C/C=C/C=C/[C@H](O[C@@H]2O[C@H](C)[C@@H](O)[C@H](N)[C@@H]2O)C[C@@H]2O[C@](O)(C[C@@H](O)C[C@@H](O)[C@H](O)CC[C@@H](O)C[C@@H](O)CC(=O)O[C@H]1C)C[C@H](O)[C@H]2NC(=O)NCCN(C)C` [I-51]: the IC50 under setting [1] is more than 80 µM.
